The text below walks through data of patent publication US8124599B2, “Method for treating neuronal and non-neuronal pain” (priority 2005, dated 2012).

Molecules are shown by their SMILES.

The subject of experiment [1] is acute inflammatory muscle pain. The experiment is described as follows: Formalin lick test for acute inflammatory muscle pain. Type of experiment: in vivo, mice. The procedure:
The mice used in this work were C57B1/6 strain adults (8 weeks old) and AC1 knockout mice of C57B1/6 background (Wei et al., 2002; Neuron). The animals were housed on a 12 h: 12 h light: dark cycle with food and water available ad libidum. All the protocols were in accordance with the Animal Care Committee of the University of Toronto. Both wild type and the knockouts were well groomed. Experimenters were blind to genotype. Under brief halothane anesthesia, 10 μL of 5% formalin was injected to the left gastronemius muscle. The needle was directed from the lateral side to avoid any bony penetration and the tip was stopped at the middle of the muscle belly. The total time spent licking or biting the injected leg including the thigh and the paw was recorded and totaled every 5 minutes for a period of 2 hours. To study the effect of test compounds on behavior, each compound to be tested was injected intra-peritoneally 30 minutes before the intramuscular injection of formalin.

For experiment [2], the system named is chronic inflammatory muscle pain. The experiment is described as follows: Chronic inflammatory muscle pain (intramuscular carrageenan), mechanical allodynia by von Frey filament. The class given is in vivo, mice. How it is done: The mice used in this work were C57B1/6 strain adults (8 weeks old) and AC1 knockout mice of C57B1/6 background (Wei et al., 2002; Neuron). The animals were housed on a 12 h: 12 h light: dark cycle with food and water available ad libidum. All the protocols were in accordance with the Animal Care Committee of the University of Toronto. Both wild type and the knockouts were well groomed. Experimenters were blind to genotype. A muscle model of mechanical allodynia developed originally to study chronic pain (Sluka et al., 2001) was adapted for these experiments. Mice were briefly anaesthetized under halothane. 20μ liters carrageenan (3%, in normal saline pH 7.2) was injected intramuscularly deep into the left gastronemius muscle. Normal saline was used as a control. Injections were carried out on days 1 and 5. Behavioral nociceptive responses were measured on days 1, 2, 5 (before and after injection), 14 and 28. Mice were placed in a plexi-glass restrainer and allowed to acclimate for 30 minutes prior to testing. Mechanical allodynia was assessed based on the responsiveness of the hind paw to the application of von Frey filaments (Stoelting, Wood Dale, Ill.) to the point of bending. […] Ten trials were carried out each time at an interval of 5 minutes and the results were expressed as a percentage of positive responses. […]

In a further experiment the test system is neuropathic pain. The experiment is described as follows: Neuropathic pain (common peroneal nerve ligation), mechanical allodynia. The settings on record: 0.1 and 1 mg/kg body weight. Type of experiment: in vivo, mice. The procedure:
The mice used in this work were C57B1/6 strain adults (8 weeks old) and AC1 knockout mice of C57B1/6 background (Wei et al., 2002; Neuron). The animals were housed on a 12 h: 12 h light: dark cycle with food and water available ad libidum. All the protocols were in accordance with the Animal Care Committee of the University of Toronto. Both wild type and the knockouts were well groomed. Experimenters were blind to genotype. Mice were placed in a plexi-glass restrainer and allowed to acclimate for 30 minutes prior to testing. Mechanical allodynia was assessed based on the responsiveness of the hind paw to the application of von Frey filaments (Stoelting, Wood Dale, Ill.) to the point of bending. Positive responses include licking, biting and sudden withdrawing of the hind paw. Experiments were carried out to characterize the threshold stimulus. […] This filament was then used to test mechanical allodynia. Ten trials were carried out each time at an interval of 5 minutes and the results were expressed as a percentage of positive responses. Positive responses included prolonged hind paw withdrawal followed by licking or scratching. Neuropathic pain was induced by ligating the common peroneal nerve as previously known in the art. […] The effect of AC1 inhibition was assessed on maximal mechanical allodynia over the dorsum of the foot on the ipsilateral side of ligation on day 7. […]

For experiment [3], the system named is combined chronic inflammatory pain and neuropathic pain. The experiment is described as follows: Combination of chronic inflammatory pain and neuropathic pain, mechanical allodynia. Type of experiment: in vivo, mice. The settings on record: i.p. pre-treatment. How it is done:
The mice used in this work were C57B1/6 strain adults (8 weeks old) and AC1 knockout mice of C57B1/6 background (Wei et al., 2002; Neuron). The animals were housed on a 12 h: 12 h light: dark cycle with food and water available ad libidum. All the protocols were in accordance with the Animal Care Committee of the University of Toronto. Both wild type and the knockouts were well groomed. Experimenters were blind to genotype. A muscle model of mechanical allodynia developed originally to study chronic pain (Sluka et al., 2001) was adapted for these experiments. Mice were briefly anaesthetized under halothane. 20μ liters carrageenan (3%, in normal saline pH 7.2) was injected intramuscularly deep into the left gastronemius muscle. Normal saline was used as a control. Injections were carried out on days 1 and 5. Behavioral nociceptive responses were measured on days 1, 2, 5 (before and after injection), 14 and 28. […] Mechanical allodynia was assessed based on the responsiveness of the hind paw to the application of von Frey filaments (Stoelting, Wood Dale, Ill.) to the point of bending. […] Ten trials were carried out each time at an interval of 5 minutes and the results were expressed as a percentage of positive responses. […] The effect of AC1 inhibition was assessed on maximal mechanical allodynia over the dorsum of the foot on the ipsilateral side of ligation on day 7. […]

Experiment [4] concerns mechanical allodynia in pain model. Kind of experiment: Oral administration to pain model (rat), mechanical allodynia. Type of experiment: in vivo. The settings on record: 1 mg/kg/3 ml, as compared with the response to gabapentin.

For the compound `Nc1ncnc2c1ncn2CCNCCCCCO` [HTS09836], the “dose of peak response, licking response of acute muscle inflammatory pain” value in experiment [1] (dose range 0.1 to 5 mg/kg) amounted to 1 mg/kg body weight. Also, the “licking response of acute muscle inflammatory pain” value in experiment [1] (dose range of 0.1 to 5 mg/kg bodyweight, intra-peritoneally 30 minutes before formalin, P<0.001) is reported as “significant reduction”. For the same compound, in experiment [2] (1 mg/kg versus 0.1 mg/kg), the “mechanical allodynia in chronic inflammatory muscle pain, comparison of dosages” value was “superior effect”. In addition, the “mechanical allodynia in chronic inflammatory muscle pain” value in experiment [2] (0.1 and 1 mg/kg body weight, von Frey filament) is reported as “significant reduction in mechanical allodynia”. In the experiment with neuropathic pain, the “allodynia in neuropathic pain” value was “significantly reduced”. Also, the “mechanical allodynia in combined chronic inflammatory and neuropathic pain” value in experiment [3] (0.1 and 1 mg/kg body weight) was “significantly reduced”.

With `Nc1ncnc2c1ncn2CCNCCCCCO` [NB001], the “mechanical allodynia in combined chronic inflammatory and neuropathic pain” value in experiment [3] (0.1 mg/kg and 1.1 mg/kg body weight) is recorded as “significantly reduced”. Further, the “mechanical allodynia after oral administration” value in experiment [4] is “significant reduction in mechanical allodynia”.
